Four compounds from patent US20050014751A1, “Use of n-acyl homoserine lactones for the treatment of insulitis” (priority 2001, published 2005) can be followed below.

One experiment has as its system TNF-alpha production. Kind of experiment: TNF-alpha production from LPS-stimulated human PBMC. It is filed as cell-based. Here is the method: Bacterial lipopolysaccharide (LPS) stimulates the production of a variety of cytokines, including TNF-alpha, from human PBMC; these cytokines in turn influence the development of T cells, supporting a T helper 1 conducive milieu. Human PBMC prepared from whole blood by buoyant density centrifugation were resuspended in CTCM. HSL compounds were again tested at similar dilutions as for murine splenocytes in 200 μl of CTCM, containing 5×10^−5 μg/ml LPS Escherichia coli strain 055:B5 (Sigma, Poole, UK) and 100,000 PBMC. Following incubation for 24 h at 37° C. in 5% CO2-air, the cell culture supernatants were collected and tested for TNF-alpha levels by ‘sandwich’ ELISA. Briefly, 96-well Nunc MaxiSorp (Life Technologies, Paisley, UK) plates were coated with 50 μl of a 2 μg/ml solution of mouse anti-human TNF-alpha monoclonal antibody (Pharmingen, UK) in 0.05 M carbonate/bicarbonate buffer, pH 9.6 overnight at 4° C. After washing the plates three times with PBS-Tween, which contained phosphate buffered saline (PBS) with 0.5% (vol/vol) Tween 20 (Sigma, Poole, UK), the plates were blocked with 1% (wt/vol) bovine serum albumin (BSA) (Sigma, Poole, UK) at room temperature for 2 h. […] Following four washes, the bound biotinylated antibody was detected with 50 μl of a 1:1,000 dilution of Streptavidin-peroxidase (Pharmingen, UK). […] The enzyme reaction was stopped with 50 μl of 2.5 M H2SO4 after an incubation of 10 minutes at room temperature and the development was read at 450 nm with a spectrophotometric 96-well plate reader (Dynex). […]
Similar studies were carried out using, as the HSL compounds, N-(12-bromo-3-oxododecanoyl)-L-homoserine lactone (12BrOdDHL) and N-(12-hydroxy-3-oxododecanoyl)-L-homoserine lactone (12hydroxyOdDHL) and the plots for these are shown in FIG. 9. […] The IC50 value for dexamethasone was determined to be 500.
(§1) In the cell culture assays the number of cells used (mouse splenocytes and human PBMC) was initially optimised to 100,000 cells per well. The optimal dose of ConA of 1 μg/ml used in the cell proliferation assays was determined from ConA titration curves. […]

The subject of another experiment is human PBMC. The experiment is described as follows: ConA mitogen-stimulated proliferation of human PBMC. It is filed as cell-based. Conditions: ConA 1 μg/ml, 100,000 PBMC. Here is the method:
Blood specimens were obtained with consent from healthy human volunteers. Human peripheral blood mononuclear cells (PBMC) were isolated from heparinised whole blood by buoyant density centrifugation over Histopaque 1077 (Sigma, Poole, UK) at 600 g for 20 minutes. PBMC harvested from the ‘buffy’ layers were washed twice with RPMI 1640 medium and resuspended in CTCM. HSL compounds were tested at similar dilutions as for murine splenocytes in 200 μl of CTCM, containing 1 μg/ml of ConA and 100,000 PBMC. Human PBMC were incubated for 48 h at 37° C. in 5% CO2-air, followed by pulsing with 0.25 μCi [^3H]-thymidine (see above). After a further incubation of 24 h cells were harvested onto fibreglass filters and then counted in the presence of MicroScint-O with the Packard TopCount.
Concanavalin induced cell proliferation of human peripheral blood mononuclear cells (PBMC) was tracked, as described in I above, by a measurement of counts per minute using the scintillation counter. The inhibitory effect of an HSL compound being tested on cell proliferation was indicated by a reduction in counts per minute. […]
as §1

The next experiment relates to murine splenocytes. Kind of experiment: ConA mitogen-stimulated proliferation of murine splenocytes. Conditions: ConA 1 μg/ml, 100,000 spleen cells, 1 mM to 0.1 μM. It is filed as cell-based, BALB/c mice. Here is the method:
The concanavalin A (ConA) cell proliferation assay was used to assess the effect of homoserine lactone (HSL) compounds on T-cell activation and proliferation. Proliferation was assessed by the incorporation of [^3H]-thymidine into DNA. Eight-week-old female BALB/c mice were obtained from Harlan (Bicester, Oxon, UK) and given food and water ad libitum. Splenocyte suspensions were prepared by removing the spleens and placing them into. RPMI 1640 medium. The spleens were forced through 70-μm-pore-size wire gauzes using the plunger from a 5-ml syringe to produce a single cell suspension. The cells were pelleted by centrifugation, and erythrocytes were lysed with 0.017M Tris, 0.144M ammonium chloride buffer, pH 7.2. Leucocytes were washed twice with RPMI 1640 medium with 2% (vol/vol) foetal calf serum (FCS) and resuspended in complete cell culture medium (CTCM) consisting of RPMI 1640 medium with 5% FCS, 2 mM L-glutamine, and 5×10^−5 M 2-mercaptoethanol. […] After the addition of 25 μl of MicroScint-O (Packard) to each well the filters were counted with the Packard TopCount scintillation counter. […]
as §1

The next experiment deals with diabetes in NOD mice. The experiment is described as follows: Alleviation of diabetes in NOD mice (incidence of diabetes, Uristix). It is filed as in vivo. Conditions: above 6 mMol glucose/l = diabetes. Here is the method:
The ability of the lead compound (OdDHL) to alleviate diabetes in NOD mice was determined by treating the mice 3 times per week for 4 weeks at 30 mg/kg as above. DMSO and OHHL were used as controls.
Diabetes was diagnosed using Uristix and a level of above 6 mMol glucose/I was taken to indicate the presence of diabetes.

Each structure is given as a SMILES string.

Take `C[C@@H]1C[C@H]2[C@@H]3CCC4=CC(=O)C=C[C@]4(C)[C@@]3(F)[C@@H](O)C[C@]2(C)[C@@]1(O)C(=O)CO` [dexamethasone, reference compound]: the IC50 in the experiment on TNF-alpha production (LPS-stimulated human PBMC, unit from the IC50 definition, read-out: IC50, concentration which inhibits TNF-α secretion by 50%) was found to be 500 µM.
With `CCCCCCCCCCCC(=O)CC(=O)N[C@H]1CCOC1=O` [OtDHL, N-(3-oxotetradecanoyl)-L-homoserine lactone], the “inhibition of proliferation of human PBMC ([3H]-thymidine cpm, FIG. 7)” value in the experiment with human PBMC is recorded as “inhibited proliferation”. In the experiment on TNF-alpha production (LPS 5×10^−5 μg/ml, 100,000 PBMC, 24 h, ELISA), the “inhibition of TNF-α secretion (FIG. 8)” value is recorded as “inhibited the secretion”.
`CCCCCC(=O)CC(=O)N[C@H]1CCOC1=O` [OOHL, N-(3-oxooctanoyl)-L-homoserine lactone, reference compound]: the “inhibition of splenocyte proliferation ([3H]-thymidine cpm, FIG. 6)” value in the experiment with murine splenocytes was “failed to inhibit proliferation”.
As for `CCCC(=O)CC(=O)N[C@H]1CCOC1=O` [OHHL, N-(3-oxohexanoyl)-L-homoserine lactone, reference compound], the incidence of diabetes is 7/10 in the experiment with diabetes in NOD mice (Week of Experiment 20, 30 mg/kg 3 times per week for 4 weeks) and 12/20 in the experiment on diabetes in NOD mice (Week of Experiment 30, 30 mg/kg 3 times per week for 4 weeks, week 30 of experiment).
